Results from US9096543B2, “Nuclear transport modulators and uses thereof” (Karyopharm Therapeutics Inc., priority 2012, dated 2015).
“Also recorded” adds a separate entry of the source.

Tested on: IMQ-induced psoriasis
Assay: Imiquimod (IMQ)-induced dermal inflammation/psoriasis model (Study 2)
Format: in vivo, BALB/c mice
Details: Compound 2 2.5 mg/kg
Method: Forty (40) male BALB/c mice (Biological E Limited, Hyderabad (CPCSEA registration number: 36/99/CPCSEA)) were divided into four (4) groups consisting of ten (10) mice each. Animals were randomized based on their body weight. The groups were designated as Group-I (Nave), Group-II (IMQ; vehicle (PEG 400 and HPBCD)), Group-III (IMQ; Compound 2 (2.5 mg/kg)) and […] (IMQ; cyclophosphamide (10 mg/kg)).
A small area on the dorsum of each mouse was shaved, ensuring that these areas were of equal size/area. Psoriasis was induced in Groups II to IV by topical application of 50 mg of IMQ cream daily from Day 1 to Day 6 on the dorsum of the animals. On Day 1 and Day 2 of the study, four hours after topical application of IMQ, Compound 2 or positive control (cyclophosphamide) or vehicle were administered to animals in pertinent groups. Of note, animals in Group II and Group III were subjected to subcutaneous injections, whereas animals in Group IV received oral administration. The Compound 2, vehicle and cyclophosphamide treatment was terminated on Day 2. These groups of animals were maintained on daily IMQ treatments until Day 6. On Day 7, the psoriasis-induced animals were re-randomized into 3 groups consisting of 10 animals each based on Cumulative Disease Activity Index (CDAI). From Day 7 to Day 9, animals received vehicle or positive control or Compound 2. Of note, on these days animals were not treated with IMQ. From Day 10 to Day 14, the animals were treated alternatively with IMQ (Days 10, 12 and 14), or vehicle, positive control or Compound 2 (Days 11, 13).
All animals were observed daily for a period of […] for gross observations, body weight and feed and water intake. On Days 1 and 2, scorings of erythema, scaling, folding and thickening of skin were recorded 2 hours after administration of vehicle/positive control/test compounds, and on Days 3 to 14 scorings were recorded 4 hours after IMQ application, or administration of positive control, vehicle or Compound 2.
Vehicle was prepared by dissolving 40 mg of HPBCD in 70.0 mL of distilled water. Compound 2 was prepared by dissolving 3.59 mg in 0.5% PVP and 0.5% Pluronic. Cyclophosphamide was prepared by dissolving 500 mg of CMC in 100 mL distilled water.
The experimental results shown in Table 10 are expressed as mean±SEM. Data was assessed using one-way ANOVA, and post hoc analysis was performed using Dunnett's test.

**Q.** With O=C(/C=C\n1cnc(-c2cc(C(F)(F)F)cc(C(F)(F)F)c2)n1)NNC(=O)CN1CCOCC1 [Compound 2, (Z)-3-(3-(3,5-bis(trifluoromethyl)phenyl)-1H-1,2,4-triazol-1-yl)-N′-(2-morpholinoacetyl)acrylohydrazide] as the molecule, how does the “body weight, food consumption and water intake” value read?
**A.** without greatly impacting the consumption of food or water

**Q.** And the “rate of reduction of disease activity index compared to vehicle” value (2.5 mg/kg)?
**A.** significantly greater than that observed in animals treated with vehicle; also recorded: diminished IMQ-induced disease manifestation
